# According to the NIST ThermoML archive (doi:10.1021/je7001094):
# ± gives the expanded uncertainty stated by the source.
# Legend:
# [1] = Crystal; DTA
# [2] = Molar enthalpy of transition or fusion; settings: Crystal; DSC
# [3] = molar heat capacity at constant pressure; settings: 323.1 K; 101.33 kPa; Crystal; Small sample (50 mg) DSC
SMILES,Normal melting temperature [1],Molar enthalpy of transition or fusion [2],molar heat capacity at constant pressure [3]
COc1ccc([C@@H]2CC(=O)c3c(O)cc(O)cc3O2)cc1O,226.07 ± 2 °C,8.58 ± 0.191 kcal/mol,906 ± 530 J/K/mol
"O=C1CC(c2ccc(O)cc2)Oc2cc(O)cc(O)c21 (stereo not drawn) [4',5,7-trihydroxyflavanone]",250.00 ± 1.2 °C,9.51 ± 0.239 kcal/mol,259.7 ± 32 J/K/mol
"O=c1cc(-c2ccccc2)oc2cc(O)cc(O)c12 [5,7-dihydroxyflavone]",285.00 ± 2.2 °C,9.37 ± 0.215 kcal/mol,200.6 ± 110 J/K/mol
O=c1c(O[C@@H]2O[C@H]([C@H](O)CO)[C@H](O)[C@H]2O)c(-c2ccc(O)c(O)c2)oc2cc(O)cc(O)c12 [isoquercitrin],198.00 ± 3 °C,11.9 ± 0.502 kcal/mol,947.9 ± 30 J/K/mol
O=c1c(O)c(-c2ccc(O)c(O)c2)oc2cc(O)cc(O)c12 [quercetin],322.00 ± 1.4 °C,9.92 ± 0.335 kcal/mol,585.9 ± 170 J/K/mol
C[C@@H]1O[C@@H](OC[C@H]2O[C@@H](Oc3c(-c4ccc(O)c(O)c4)oc4cc(O)cc(O)c4c3=O)[C@H](O)[C@@H](O)[C@@H]2O)[C@H](O)[C@H](O)[C@H]1O [rutin],177.00 ± 3 °C,19.7 ± 0.406 kcal/mol,915 ± 160 J/K/mol
